In patent US20040019121A1, “Protein prenyl transferase inhibitors in the treatment of neuroinflammatory disease” (priority 2000, published 2004):

Assays:
[1] = tested on: brain endothelial cell monolayers (GP8/3.9); assay: T-lymphocyte transendothelial migration through brain endothelial cell monolayers; format: cell-based, rat
Method: (§1) The immortalised Lewis rat brain endothelial cell line GP8/3.9 (Greenwood et al., 1996) was maintained in Ham's F-10 medium supplemented with 17.5% FCS, 7.5 μg/ml endothelial cell growth supplement, 80 μg/ml heparin, 2 mM glutamine, 0.5 μg/ml vitamin C, 100 U/ml penicillin and 100 μg/ml streptomycin.
Lewis rat T-lymphocyte cell lines specific for purified myelin basic protein were prepared as previously described (Pryce et al, 1997). Briefly, lymph nodes were collected from bovine MBP-immunised rats and the T-lymphocytes propagated by periodically alternating antigen activation with IL-2 stimulation. The cell lines express the marker of the CD4^+ T cell subset, are CD45RC^low and recognise MBP in the molecular context of MHC class II determinants (Pryce et al, 1997).
The ability of the immortalised cells to support the transendothelial migration of antigen specific T-lymphocytes was determined using a well-characterised assay as described extensively elsewhere (Adamson et al., 1999 and http://www.ucl.ac.uk/ioo/video/ sequence.avi) Briefly, T-lymphocytes were added (2×10^5 cells/well) to 24 well plates containing endothelial cell monolayers. Lymphocytes were allowed to settle and migrate over a 4 h period. To evaluate the level of migration co-cultures were placed on the stage of a phase-contrast inverted microscope housed in a temperature controlled (37° C.), 5% CO2 gassed chamber (Zeiss, Herts, U.K.). A 200×200 μm field was randomly chosen and recorded for 10 min spanning the 4 h time point using a camera linked to a time-lapse video recorder. Recordings were replayed at 160× normal speed and lymphocytes identified and counted which had either adhered to the surface of the monolayer or that had migrated through the monolayer. Lymphocytes on the surface of the monolayer were identified by their highly refractive morphology (phase-bright) and rounded or partially spread appearance. In contrast cells that had migrated through the monolayer were phase-dark, highly attenuated and were seen to probe under the endothelial cells in a distinctive manner (Pryce et al, 1997; Adamson et al, 1999: Etienne et al, 2000). All other data were expressed as a percentage of the control migrations. A minimum of three independent experiments using a minimum of 6 wells per assay were performed. The results are expressed as the means±SEM and significant differences between groups determined by Student±s t-test.

brain endothelial cells = assay: Adhesion of peripheral lymph node T-lymphocytes to brain endothelia; format: cell-based, rat; details: 10 μM
Method: as §1
Adhesion assays were carried out as previously described (Pryce et. al., 1994; Adamson et al., 1999). Briefly, peripheral lymph node-derived cells (PLNC) were isolated and T-lymphocytes obtained after purification on nylon wool columns. These cells which represent non-antigen activated T-lymphocytes are therefore non-migratory but highly adhesive when activated with the mitogen concanavalin A (Pryce et al., 1994, Greenwood and Calder 1993; Male et al., 1994 ). PLNC were activated for 24 h with type V concanavalin A, washed twice in HBSS, and cells labelled with 3 μCi [^3H]-deoxy glucose per 10^6 cells in HBSS for 90 min at 37° C. After washing the cells three times with HBSS they were resuspended in RPMI 1640 medium containing 10% FCS. Endothelial monolayers grown on 96 well plates were prepared by removing the culture medium and washing the cells four times with HBSS. 200 μl of [^3H]-labelled PLNC at a concentration of 1×10^6/ml were then added to each well and incubated at 37° C. for 1.5 h. In each assay, β-emissions from each of 6 replicate blank wells were determined to provide a value for the total amount of radioactivity added per well and to allow calculation of the specific activity of the cells. After incubation, non-adherent cells were removed with four separate washes from the four poles of the well with 37° C. HBSS as previously described (Pryce et al, 1994: Adamson et al., 1999). Adherent PLNC were lysed with 2% SDS, the lysate removed, scintillant added and radioactivity quantitated by spectrometry. Results are expressed as the means±SEM between groups determined by Student's t-test.

[2] = mice, daily injections of 25 mg/kg i.p.; cited from earlier work
Rho protein = Rho protein association with brain endothelial cell membranes (Western blot); format: cell-based, rat; details: C3-transferase treatment of brain endothelial cells
Method: as §1
Ice-cold lysis buffer containing 10 mM Tris-HCl pH7.5, 5 mM MgCl2, 1 mM DTT and 1 mM PMSF was added to cells and incubated on ice for 10 min. Cells were subsequently homogenised and centrifuged at 5000 g for 10 min to remove nuclei. Supernatants were then centrifuged at 100,000 g in a Beckman Ultracentrifuge for 30 min to obtain crude membranes. Membrane pellets were washed with buffer containing 50 mM Tris-HCl pH7.5, 50 mM NaCl, 5 mM MgCl2, 1 mM DTT and 1 mM PMSF and re-centrifuged at 100,000 g for 30 min. Membrane pellets were then resuspended in sample buffer and proteins resolved on 12.5% SDS-PAGE gels. Proteins were electroblotted on nitrocellulose membranes and immunblotted with anti-Rho polyclonal antibody (Santa Cruz, Wilts, UK). Rho proteins within membrane fractions were visualised following incubation with a 1:15,000 dilution of goat anti-rabbit-HRP (Pierce, Chester, UK) and ECL development (Amersham, Bucks,UK).
Isoprenylation of Rho proteins are essential for their efficient association with cell membranes (Adamson et al, 1992).

[3] = 10 μM, brain EC treated 24 h prior to and during 4 h co-culture, mean±SEM
[4] = 10 μM, brain EC treated 48 h prior to and during 4 h co-culture, mean±SEM
[5] = 24 h treatment plus 90 min adhesion assay
[6] = 48 h treatment plus 90 min adhesion assay

Row | Compound | transendothelial lymphocyte migration [1, 3] | transendothelial lymphocyte migration [1, 4] | T-lymphocyte adhesion to brain endothelial cells (brain endothelial cells; [5]) | T-lymphocyte adhesion to brain endothelial cells (brain endothelial cells; [6]) | time required to obtain steady state plasma concentrations [2] | subcellular distribution of Rho proteins (Rho protein) | transendothelial lymphocyte migration ([1]; C3 transferase treatment of brain EC, n=12)
1 | COC(=O)[C@H](CCSC)NC(=O)c1ccc(NC[C@@H](N)CS)cc1-c1ccccc1 [FTI-277] | did not result in a significant alteration | 77.7±4.9 % of control migration | did not have any significant effect | did not have any significant effect | 3 days |  | 
2 | COC(=O)[C@H](CC(C)C)NC(=O)c1ccc(NC[C@@H](N)CS)cc1-c1cccc2ccccc12 [GGTI-298] | 73.5±6.0 % of control migration | 51.6±3.1 % of control migration | did not have any significant effect | did not have any significant effect |  |  | 
3 | C3 transferase |  |  |  |  |  | did not affect | 18.4±4.1 % of control values
